Reference: the NIST ThermoML archive (doi:10.1016/j.fluid.2006.06.006)
“And” between values parts separate entries of the source, which are not always exact repeats. Equal values may be shown once.

Assay: excess molar enthalpy (molar enthalpy of mixing); xn = mol fraction of the nth substance listed
Settings: Liquid

O=C=O [carbon dioxide] + O
Settings	excess molar enthalpy
323.1 K, 2060 kPa, x1 = 0.0032	-0.0113 kcal/mol
323.1 K, 2060 kPa, x1 = 0.0037	-0.0131 kcal/mol
323.1 K, 2060 kPa, x1 = 0.004	-0.0138 kcal/mol
323.1 K, 2060 kPa, x1 = 0.0042	-0.0152 kcal/mol
323.1 K, 2060 kPa, x1 = 0.0048	-0.0168 kcal/mol
323.1 K, 2060 kPa, x1 = 0.0058	-0.0199 kcal/mol
323.1 K, 2060 kPa, x1 = 0.006	-0.022 kcal/mol
323.1 K, 2060 kPa, x1 = 0.0064	-0.0216 kcal/mol
323.1 K, 2060 kPa, x1 = 0.0079	-0.0221 kcal/mol and -0.0222 kcal/mol
323.1 K, 2060 kPa, x1 = 0.0106	-0.0228 kcal/mol
323.1 K, 2060 kPa, x1 = 0.0126	-0.0224 kcal/mol
323.1 K, 2060 kPa, x1 = 0.0158	-0.0228 kcal/mol
323.1 K, 2060 kPa, x1 = 0.021	-0.0223 kcal/mol
323.1 K, 2060 kPa, x1 = 0.0311	-0.0225 kcal/mol
323.1 K, 5100 kPa, x1 = 0.0052	-0.0162 kcal/mol
323.1 K, 5100 kPa, x1 = 0.0064	-0.02 kcal/mol
323.1 K, 5100 kPa, x1 = 0.0084	-0.0261 kcal/mol
323.1 K, 5100 kPa, x1 = 0.0092	-0.029 kcal/mol
323.1 K, 5100 kPa, x1 = 0.0101	-0.0323 kcal/mol
323.1 K, 5100 kPa, x1 = 0.0105	-0.0331 kcal/mol
323.1 K, 5100 kPa, x1 = 0.011	-0.0344 kcal/mol
323.1 K, 5100 kPa, x1 = 0.012	-0.0373 kcal/mol
323.1 K, 5100 kPa, x1 = 0.0125	-0.0394 kcal/mol
323.1 K, 5100 kPa, x1 = 0.0136	-0.0412 kcal/mol
323.1 K, 5100 kPa, x1 = 0.0138	-0.0417 kcal/mol
323.1 K, 5100 kPa, x1 = 0.0147	-0.0429 kcal/mol
323.1 K, 5100 kPa, x1 = 0.0151	-0.0441 kcal/mol
323.1 K, 5100 kPa, x1 = 0.0155	-0.0438 kcal/mol
323.1 K, 5100 kPa, x1 = 0.0156	-0.0448 kcal/mol
323.1 K, 5100 kPa, x1 = 0.0172	-0.0438 kcal/mol
323.1 K, 5100 kPa, x1 = 0.0181	-0.0441 kcal/mol
323.1 K, 5100 kPa, x1 = 0.019	-0.0454 kcal/mol
323.1 K, 5100 kPa, x1 = 0.0201	-0.0438 kcal/mol
323.1 K, 5100 kPa, x1 = 0.0208	-0.0453 kcal/mol
323.1 K, 5100 kPa, x1 = 0.0254	-0.0443 kcal/mol
323.1 K, 10530 kPa, x1 = 0.01	-0.0178 kcal/mol
323.1 K, 10530 kPa, x1 = 0.012	-0.0208 kcal/mol
323.1 K, 10530 kPa, x1 = 0.0132	-0.0243 kcal/mol
323.1 K, 10530 kPa, x1 = 0.0165	-0.0301 kcal/mol
323.1 K, 10530 kPa, x1 = 0.0197	-0.0321 kcal/mol
323.1 K, 10530 kPa, x1 = 0.023	-0.0348 kcal/mol
323.1 K, 10530 kPa, x1 = 0.0249	-0.0347 kcal/mol
323.1 K, 10530 kPa, x1 = 0.026	-0.037 kcal/mol
323.1 K, 10530 kPa, x1 = 0.0323	-0.0368 kcal/mol
323.1 K, 10530 kPa, x1 = 0.0324	-0.0368 kcal/mol
323.1 K, 10530 kPa, x1 = 0.0446	-0.0361 kcal/mol
323.1 K, 10530 kPa, x1 = 0.0508	-0.0359 kcal/mol
323.1 K, 10530 kPa, x1 = 0.0625	-0.0354 kcal/mol
323.1 K, 10530 kPa, x1 = 0.0627	-0.0356 kcal/mol
323.1 K, 14200 kPa, x1 = 0.0105	-0.0142 kcal/mol
323.1 K, 14200 kPa, x1 = 0.0125	-0.0168 kcal/mol
323.1 K, 14200 kPa, x1 = 0.0139	-0.0189 kcal/mol
323.1 K, 14200 kPa, x1 = 0.0173	-0.0225 kcal/mol
323.1 K, 14200 kPa, x1 = 0.0207	-0.025 kcal/mol
323.1 K, 14200 kPa, x1 = 0.0241	-0.0268 kcal/mol
323.1 K, 14200 kPa, x1 = 0.0248	-0.027 kcal/mol
323.1 K, 14200 kPa, x1 = 0.0261	-0.0277 kcal/mol
323.1 K, 14200 kPa, x1 = 0.0274	-0.0279 kcal/mol
323.1 K, 14200 kPa, x1 = 0.0287	-0.0288 kcal/mol
323.1 K, 14200 kPa, x1 = 0.0307	-0.029 kcal/mol
323.1 K, 14200 kPa, x1 = 0.034	-0.0284 kcal/mol
323.1 K, 14200 kPa, x1 = 0.047	-0.0283 kcal/mol
323.1 K, 14200 kPa, x1 = 0.0658	-0.0279 kcal/mol
323.1 K, 20200 kPa, x1 = 0.011	-0.0128 kcal/mol
323.1 K, 20200 kPa, x1 = 0.0147	-0.0167 kcal/mol
323.1 K, 20200 kPa, x1 = 0.0183	-0.0207 kcal/mol
323.1 K, 20200 kPa, x1 = 0.0197	-0.0216 kcal/mol
323.1 K, 20200 kPa, x1 = 0.021	-0.0236 kcal/mol
323.1 K, 20200 kPa, x1 = 0.0239	-0.0236 kcal/mol
323.1 K, 20200 kPa, x1 = 0.0253	-0.0238 kcal/mol
323.1 K, 20200 kPa, x1 = 0.0274	-0.0246 kcal/mol
323.1 K, 20200 kPa, x1 = 0.0288	-0.0248 kcal/mol
323.1 K, 20200 kPa, x1 = 0.0359	-0.0249 kcal/mol
323.1 K, 20200 kPa, x1 = 0.0427	-0.0252 kcal/mol
323.1 K, 20200 kPa, x1 = 0.0461	-0.0249 kcal/mol
323.1 K, 20200 kPa, x1 = 0.0494	-0.0251 kcal/mol
323.1 K, 20200 kPa, x1 = 0.0692	-0.0247 kcal/mol
373.1 K, 5050 kPa, x1 = 0.002	-0.00308 kcal/mol
373.1 K, 5050 kPa, x1 = 0.0025	-0.00418 kcal/mol
373.1 K, 5050 kPa, x1 = 0.003	-0.00476 kcal/mol
373.1 K, 5050 kPa, x1 = 0.004	-0.00614 kcal/mol
373.1 K, 5050 kPa, x1 = 0.0045	-0.00686 kcal/mol
373.1 K, 5050 kPa, x1 = 0.005	-0.00767 kcal/mol
373.1 K, 5050 kPa, x1 = 0.006	-0.00901 kcal/mol
373.1 K, 5050 kPa, x1 = 0.007	-0.01 kcal/mol
373.1 K, 5050 kPa, x1 = 0.0075	-0.0109 kcal/mol
373.1 K, 5050 kPa, x1 = 0.008	-0.0112 kcal/mol
373.1 K, 5050 kPa, x1 = 0.009	-0.0112 kcal/mol
373.1 K, 5050 kPa, x1 = 0.01	-0.0113 kcal/mol and -0.011 kcal/mol
373.1 K, 5050 kPa, x1 = 0.011	-0.0113 kcal/mol
373.1 K, 5050 kPa, x1 = 0.0125	-0.0109 kcal/mol
373.1 K, 5050 kPa, x1 = 0.014	-0.011 kcal/mol
373.1 K, 5050 kPa, x1 = 0.0149	-0.0103 kcal/mol
373.1 K, 5050 kPa, x1 = 0.0154	-0.0106 kcal/mol
373.1 K, 5050 kPa, x1 = 0.0174	-0.00997 kcal/mol
373.1 K, 5050 kPa, x1 = 0.0179	-0.0097 kcal/mol
373.1 K, 5050 kPa, x1 = 0.0198	-0.00939 kcal/mol
373.1 K, 10080 kPa, x1 = 0.0068	-0.00801 kcal/mol
373.1 K, 10080 kPa, x1 = 0.0081	-0.0088 kcal/mol
373.1 K, 10080 kPa, x1 = 0.0094	-0.0104 kcal/mol
373.1 K, 10080 kPa, x1 = 0.0101	-0.0114 kcal/mol
373.1 K, 10080 kPa, x1 = 0.0108	-0.0122 kcal/mol
373.1 K, 10080 kPa, x1 = 0.0134	-0.0147 kcal/mol
373.1 K, 10080 kPa, x1 = 0.0135	-0.0145 kcal/mol
373.1 K, 10080 kPa, x1 = 0.02	-0.0151 kcal/mol
373.1 K, 10080 kPa, x1 = 0.0201	-0.0148 kcal/mol
373.1 K, 10080 kPa, x1 = 0.0228	-0.0142 kcal/mol
373.1 K, 10080 kPa, x1 = 0.0263	-0.0141 kcal/mol
373.1 K, 10080 kPa, x1 = 0.0265	-0.0145 kcal/mol
373.1 K, 10080 kPa, x1 = 0.0294	-0.0134 kcal/mol
373.1 K, 10080 kPa, x1 = 0.039	-0.0134 kcal/mol
373.1 K, 10080 kPa, x1 = 0.0516	-0.0122 kcal/mol
373.1 K, 19500 kPa, x1 = 0.0037	-0.0016 kcal/mol
373.1 K, 19500 kPa, x1 = 0.0044	-0.00182 kcal/mol
373.1 K, 19500 kPa, x1 = 0.0051	-0.00198 kcal/mol
373.1 K, 19500 kPa, x1 = 0.0059	-0.00225 kcal/mol
373.1 K, 19500 kPa, x1 = 0.0066	-0.00251 kcal/mol
373.1 K, 19500 kPa, x1 = 0.0081	-0.00294 kcal/mol
373.1 K, 19500 kPa, x1 = 0.0087	-0.00335 kcal/mol
373.1 K, 19500 kPa, x1 = 0.0088	-0.00327 kcal/mol
373.1 K, 19500 kPa, x1 = 0.0095	-0.00337 kcal/mol
373.1 K, 19500 kPa, x1 = 0.011	-0.00411 kcal/mol
373.1 K, 19500 kPa, x1 = 0.0123	-0.00454 kcal/mol
373.1 K, 19500 kPa, x1 = 0.0145	-0.00464 kcal/mol
373.1 K, 19500 kPa, x1 = 0.0146	-0.00492 kcal/mol
373.1 K, 19500 kPa, x1 = 0.0159	-0.00504 kcal/mol
373.1 K, 19500 kPa, x1 = 0.0167	-0.00492 kcal/mol
373.1 K, 19500 kPa, x1 = 0.0181	-0.00554 kcal/mol
373.1 K, 19500 kPa, x1 = 0.0182	-0.00535 kcal/mol
373.1 K, 19500 kPa, x1 = 0.0195	-0.00564 kcal/mol
373.1 K, 19500 kPa, x1 = 0.0217	-0.0054 kcal/mol
373.1 K, 19500 kPa, x1 = 0.0218	-0.0054 kcal/mol
373.1 K, 19500 kPa, x1 = 0.0251	-0.00531 kcal/mol
373.1 K, 19500 kPa, x1 = 0.0253	-0.00538 kcal/mol
373.1 K, 19500 kPa, x1 = 0.0265	-0.00526 kcal/mol
373.1 K, 19500 kPa, x1 = 0.03	-0.00488 kcal/mol
373.1 K, 19500 kPa, x1 = 0.0521	-0.00258 kcal/mol
373.1 K, 19500 kPa, x1 = 0.0603	-0.00186 kcal/mol
373.1 K, 19500 kPa, x1 = 0.0688	-0.00086 kcal/mol
373.1 K, 19500 kPa, x1 = 0.0691	-0.00129 kcal/mol
373.1 K, 19500 kPa, x1 = 0.0771	-0.000478 kcal/mol
